Molecular target: T1, Human Polymorphonuclear Leukocyte Elastase (Homo sapiens, UniProt P08246)
T1 construct: Crude extract of human polymorphonuclear leukocytes (PMN) containing elastase activity; from tissue; host or cells: human polymorphonuclear leukocytes (crude extract)
T1 sequence (P08246 30-267): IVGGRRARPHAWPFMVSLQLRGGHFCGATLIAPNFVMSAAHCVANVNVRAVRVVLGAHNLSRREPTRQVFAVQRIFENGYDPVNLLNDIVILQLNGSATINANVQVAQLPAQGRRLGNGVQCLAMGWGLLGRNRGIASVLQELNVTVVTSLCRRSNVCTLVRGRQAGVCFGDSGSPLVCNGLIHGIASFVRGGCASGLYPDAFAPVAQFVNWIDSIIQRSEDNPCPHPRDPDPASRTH
Assay: Enzyme assay for inhibition of human polymorphonuclear leukocyte elastase via hydrolysis of Boc-AAPAN or Boc-AAPVN
Format: biochemical
Settings: expressed to the nearest thousand; for kinact/KI: pH 7.5, second order rate constant for inactivation of the enzyme, read-out: Kobs/[I]
Experimental: Enzyme Assays for the Inhibition of Human Polymorphonuclear Leukocyte Elastase Via Hydrolysis of N-t-Boc-alanyl-alanyl-prolylalanine-p-nitroanilide (Boc-AAPAN) or N-t-Boc-alanyl-prolylvaline-p-nitro-anilide (Boc-AAPVN) Reagent:
0.05M TES (N-tris[hydroxymethyl]methyl-2-mino-ethanesulfonic acid) Buffer, pH 7.5.
0.2 mM Boc-AAPAN or Boc-AAPVN.
To prepare substrate, the solid was first dissolved in 10.0 ml DMSO. Buffer at pH 7.5 was then added to a final volume of 100 ml.
Crude extract of human polymorphonuclear leukocytes (PMN) containing elastase activity.
Inhibitors (azetidinones) to be tested dissolved in DMSO just before use.
To 1.0 ml of 0.2 mM Boc-AAPAN in a cuvette, 0.01-0.1 ml of DMSO with or without inhibitor was added. After mixing, a measurement was taken at 410 mµ to detect any spontaneous hydrolysis due to presence of test compound. 0.05 Milliliters of PMN extract was then added and the ΔOD/min at 410 mµ was measured and recorded. Beckman model 35 spectrophotometer was used.
Results were expressed to the nearest thousand ^kobs/I which is the second order rate constant in per mole per second for inactivation of the enzyme.
The elastase activity in the crude PMN extract may vary from one preparation to another. A control of each new batch is run, and the volume added in the assay procedure is adjusted according to activity.

SMILES	kinact/KI [M⁻¹ s⁻¹]	Kobs/[I] (second order rate constant for inactivation of the enzyme, pH 7.5)
CCC[C@@H](NC(=O)N1C(=O)C(CC)(CC)[C@@H]1Oc1ccc(C(=O)OCC(C)(C)N(C)C)cc1)c1ccc(C)cc1 [Compound 20, 2-dimethylamino-2-methyl-1-propyl [S-(R*,S*)]-4-[[3,3-diethyl-1-[[[1-(4-methyl-phenyl)butyl]amino]carbonyl]-4-oxo-2-azetidinyl]oxy]benzoate]	1.47e+06	–
CCC[C@@H](NC(=O)N1C(=O)C(CC)(CC)[C@@H]1Oc1ccc(C(=O)OCCN(C(C)C)C(C)C)cc1)c1ccc(C)cc1 [Compound 21, 2-(diisopropylamino)ethyl [S-(R*,S*)]-4-[[3,3-diethyl-1-[[[1-(4-methyl-phenyl)butyl]amino]carbonyl]-4-oxo-2-azetidinyl]oxy]benzoate]	1.67e+06	–
CCC[C@@H](NC(=O)N1C(=O)C(CC)(CC)[C@@H]1Oc1ccc(C(=O)OCCN2CCN(C(=O)OCc3ccccc3)CC2)cc1)c1ccc(C)cc1 [Compound 22, Benzyl [S-(R*,S*)]-4-[2-[[4-[[3,3-diethyl-1-[[[1-(4-methylphenyl)butyl]amino]carbonyl]-4-oxo-2-azetidinyl]oxy]benzoyl]oxy]-ethyl]-1-Piperazine-carboxylate]	4.12e+06	–
CCCCN(CCCC)CCOC(=O)c1ccc(O[C@@H]2N(C(=O)N[C@H](CCC)c3ccc(C)cc3)C(=O)C2(CC)CC)cc1 [Compound 23, 2-(dibutylamino)ethyl [S-(R*,S*)]-4-[[3,3-diethyl-1-[[[1-(4-methyl-phenyl)butyl]amino]carbonyl]-4-oxo-2-azetidinyl]oxy]benzoate]	992000	–
CCC[C@@H](NC(=O)N1C(=O)C(CC)(CC)[C@@H]1Oc1ccc(C(=O)OCCCCCCN(C)C)cc1)c1ccc(C)cc1 [Compound 24, [S-(R*,S*)]-6-(dimethylamino)hexyl-4-[[3,3-diethyl-1-[[[1-(4-methyl-phenyl)butyl]amino]carbonyl]-4-oxo-2-azetidinyl]oxy]-benzoate]	1.99e+06	–
CCC[C@@H](NC(=O)N1C(=O)C(CC)(CC)[C@@H]1Oc1ccc(C(=O)OCCN2CCNCC2)cc1)c1ccc(C)cc1 [Compound 25]	1.71e+06	–
CCC[C@@H](NC(=O)N1C(=O)C(CC)(CC)[C@@H]1Oc1ccc(C(=O)OCCN2CCN(C)CC2)cc1)c1ccc(C)cc1 [Compound 26, 2-(4-methyl-1-piperazinyl)ethyl[S-(R*,S*)]-4-[[3,3-diethyl-1-[[[1-(4-methyl-phenyl)butyl]amino]carbonyl]-4-oxo-2-azetidinyl]oxy]benzoate]	4.68e+06	–
CCC[C@@H](NC(=O)N1C(=O)C(CC)(CC)[C@@H]1Oc1ccc(C(=O)OCCN2CCN(C(C)=O)CC2)cc1)c1ccc(C)cc1 [Compound 27]	3.26e+06	–
CCCC(NC(=O)N1C(=O)C(CC)(CC)C1Oc1ccc(C(=O)OCCN(c2ccccc2)c2ccccc2)cc1)c1ccc(C)cc1 (stereo not drawn) [Compound 28, 2-(diphenylamino)ethyl[S-(R*,S*)]-4-[[3,3-diethyl-1-[[[1-(4-methylphenyl)butyl]amino]carbonyl]-4-oxo-2-azetidinyl]oxy]benzoate]	–	188,000 per mole per second
C=CCN(CC=C)CCOC(=O)c1ccc(O[C@@H]2N(C(=O)N[C@H](CCC)c3ccc(C)cc3)C(=O)C2(CC)CC)cc1 [Compound 29, 2-(di-2-propenylamino)ethyl [S-(R*,S*)]-4-[[3,3-diethyl-1-[[[1-(4-methylphenyl)butyl]amino]carbonyl]-4-oxo-2-azetidinyl]oxy]benzoate]	891000	–
CCC[C@@H](NC(=O)N1C(=O)C(CC)(CC)[C@@H]1Oc1ccc(C(=O)OCC(c2ccccc2)N(C)C)cc1)c1ccc(C)cc1 (stereo partly drawn) [Compound 30, 2-(dimethylamino)-2-phenylethyl [S-(R*,S*)]-4-[[3,3-diethyl-1-[[[1-(4-methylphenyl)butyl]amino]carbonyl]-4-oxo-2-azetidinyl]oxy]benzoate]	656000	–
CCC[C@@H](NC(=O)N1C(=O)C(CC)(CC)[C@@H]1Oc1ccc(C(=O)OCCN(C)Cc2ccccc2)cc1)c1ccc(C)cc1 [Compound 31, 2-[methyl(phenylmethyl)amino]ethyl [S-(R*,S*)]-4-[[3,3-diethyl-1-[[[1-(4-methyl-phenyl)butyl]amino]carbonyl]-4-oxo-2-azetidinyl]oxy]benzoate]	1.18e+06	–
CCC[C@@H](NC(=O)N1C(=O)C(CC)(CC)[C@@H]1Oc1ccc(CC(=O)OCCN2CCOCC2)cc1)c1ccc(C)cc1 [Compound 35]	1.72e+06	–
CCC[C@@H](NC(=O)N1C(=O)C(CC)(CC)[C@@H]1Oc1ccc(CC(=O)OCCN(C)Cc2ccccc2)cc1)c1ccc(C)cc1 [Compound 39]	751000	–
CCC[C@@H](NC(=O)N1C(=O)C(CC)(CC)[C@@H]1Oc1ccc(CC(=O)N2CCN(C)CC2)cc1)c1ccc(C)cc1 [Compound 41]	974000	–
CCC[C@@H](NC(=O)N1C(=O)C(CC)(CC)[C@@H]1Oc1ccc(CC(=O)N2CCOCC2)cc1)c1ccc(C)cc1 [Compound 42]	1.09e+06	–
CCC[C@@H](NC(=O)N1C(=O)C(CC)(CC)[C@@H]1Oc1ccc(CC(=O)N(C)CCN(C)C)cc1)c1ccc(C)cc1 [Compound 44]	1.24e+06	–
CCC[C@@H](NC(=O)N1C(=O)C(CC)(CC)[C@@H]1Oc1ccc(CC(=O)NC(C)C(=O)N(CCO)CCO)cc1)c1ccc(C)cc1 (stereo partly drawn) [Compound 51]	939000	–
CCC[C@@H](NC(=O)N1C(=O)C(CC)(CC)[C@@H]1Oc1ccc(CC(=O)N(C)CC(=O)N(CCO)CCO)cc1)c1ccc(C)cc1 [Compound 52]	273000	–
CCC[C@@H](NC(=O)N1C(=O)C(CC)(CC)[C@@H]1Oc1ccc(CC(=O)N(C)CCN2CCOCC2)cc1)c1ccc(C)cc1 [Compound 53]	2.51e+06	–
CCC[C@@H](NC(=O)N1C(=O)C(CC)(CC)[C@@H]1Oc1ccc(CC(=O)N(C)CCN(CCOC)CCOC)cc1)c1ccc(C)cc1 [Compound 54]	1.39e+06	–
CCC[C@@H](NC(=O)N1C(=O)C(CC)(CC)[C@@H]1Oc1ccc(CC(=O)N(C)CCN(CC)CC)cc1)c1ccc(C)cc1 [Compound 55]	1.32e+06	–

More lines, main results first:

kinact/KI [M⁻¹ s⁻¹]	SMILES	Kobs/[I] (second order rate constant for inactivation of the enzyme, pH 7.5)
1.99e+06	CCC[C@@H](NC(=O)N1C(=O)C(CC)(CC)[C@@H]1Oc1ccc(CC(=O)OCCN(C)C)cc1)c1ccc(C)cc1 [Compound 32]	–
1.15e+06	CCC[C@@H](NC(=O)N1C(=O)C(CC)(CC)[C@@H]1Oc1ccc(CC(=O)OCCCN(C)C)cc1)c1ccc(C)cc1 [Compound 33]	–
1.34e+06	CCC[C@@H](NC(=O)N1C(=O)C(CC)(CC)[C@@H]1Oc1ccc(CC(=O)OCCN(CC)CC)cc1)c1ccc(C)cc1 [Compound 34]	–
1.69e+06	CCC[C@@H](NC(=O)N1C(=O)C(CC)(CC)[C@@H]1Oc1ccc(CC(=O)OC(C)CN(C)C)cc1)c1ccc(C)cc1 (stereo partly drawn) [Compound 36]	–
2.1e+06	CCC[C@@H](NC(=O)N1C(=O)C(CC)(CC)[C@@H]1Oc1ccc(CC(=O)OCC(C)(C)N(C)C)cc1)c1ccc(C)cc1 [Compound 37]	–
1.01e+06	CCC[C@@H](NC(=O)N1C(=O)C(CC)(CC)[C@@H]1Oc1ccc(CC(=O)OCC(=O)O)cc1)c1ccc(C)cc1 [Compound 38]	–
1.24e+06	CCC[C@@H](NC(=O)N1C(=O)C(CC)(CC)[C@@H]1Oc1ccc(CC(=O)N(CCO)CCO)cc1)c1ccc(C)cc1 [Compound 40]	–
1.21e+06	CCC[C@@H](NC(=O)N1C(=O)C(CC)(CC)[C@@H]1Oc1ccc(CC(=O)NCCN(C)C)cc1)c1ccc(C)cc1 [Compound 43]	–
1.12e+06	CCC[C@@H](NC(=O)N1C(=O)C(CC)(CC)[C@@H]1Oc1ccc(CC(=O)NCCCN(C)C)cc1)c1ccc(C)cc1 [Compound 45]	–
2.25e+06	CCC[C@@H](NC(=O)N1C(=O)C(CC)(CC)[C@@H]1Oc1ccc(CC(=O)NCCc2ccncc2)cc1)c1ccc(C)cc1 [Compound 46]	–
876000	CCC[C@@H](NC(=O)N1C(=O)C(CC)(CC)[C@@H]1Oc1ccc(CC(=O)NCC(=O)O)cc1)c1ccc(C)cc1 [Compound 47]	–
676000	CCC[C@@H](NC(=O)N1C(=O)C(CC)(CC)[C@@H]1Oc1ccc(CC(=O)NC(C)C(=O)O)cc1)c1ccc(C)cc1 (stereo partly drawn) [Compound 48]	–
1.3e+06	CCC[C@@H](NC(=O)N1C(=O)C(CC)(CC)[C@@H]1Oc1ccc(CC(=O)NCC(=O)N(CCO)CCO)cc1)c1ccc(C)cc1 [Compound 49]	–
989000	CCC[C@@H](NC(=O)N1C(=O)C(CC)(CC)[C@@H]1Oc1ccc(CC(=O)N(C)CC(=O)O)cc1)c1ccc(C)cc1 [Compound 50]	–
1.05e+06	CCC[C@@H](NC(=O)N1C(=O)C(CC)(CC)[C@@H]1Oc1ccc(CC(=O)N(C)CCCN(C)C)cc1)c1ccc(C)cc1 [Compound 56]	–
1.34e+06	CCC[C@@H](NC(=O)N1C(=O)C(CC)(CC)[C@@H]1Oc1ccc(CC(=O)NCC(C)N(C)C)cc1)c1ccc(C)cc1 (stereo partly drawn) [Compound 57]	–
1.63e+06	CCC[C@@H](NC(=O)N1C(=O)C(CC)(CC)[C@@H]1Oc1ccc(CC(=O)N(C)CCN(C(C)C)C(C)C)cc1)c1ccc(C)cc1 [Compound 58]	–

Source: patent publication EP0595557A1, “New substituted azetidinones as anti-inflammatory and antidegenerative agents” (MERCK & CO. INC., priority 1992, dated 1994)
